Assay results taken from patent US6689754B1, “Heterocyclic glycyl β-alanine derivatives” (G. D. Searle & Co., priority 1998, dated 2004).
Where a name gives a salt, the structure may show the parent alone.

How the values were obtained:
[1] = molecular target: T1, Human vitronectin receptor (αvβ3) (Homo sapiens, UniProt P05106+P06756); assay: Vitronectin adhesion assay: solid phase receptor assay, competition with biotinylated vitronectin; type: binding; settings: purified human vitronectin receptor; 1 nM biotinylated vitronectin
T1 construct: Human vitronectin receptor (αvβ3) was purified from human placenta; from tissue; host or cells: human placenta
Procedure: Vitronectin Adhesion Assay
Human vitronectin receptor (αvβ3) was purified from human placenta as previously described [Pytela et al., Methods in Enzymology, 144:475-489 (1987)]. Human vitronectin was purified from fresh frozen plasma as previously described [Yatohgo et al., Cell Structure and Function, 13:281-292 (1988)]. Biotinylated human vitronectin was prepared by coupling NHS-biotin from Pierce Chemical Company (Rockford, Ill.) to purified vitronectin as previously described [Charo et al., J. Biol. Chem., 266(3):1415-1421 (1991)]. Assay buffer, OPD substrate tablets, and RIA grade BSA were obtained from Sigma (St. Louis, Mo.). Anti-biotin antibody was obtained from Calbiochem (La Jolla, Calif.). Linbro microtiter plates were obtained from Flow Labs (McLean, Va.). ADP reagent was obtained from Sigma (St. Louis, Mo.).
This assay was essentially the same as previously reported [Niiya et al., Blood, 70:475-483 (1987)]. The purified human vitronectin receptor (αvβ3) was diluted from stock solutions to 1.0 μg/mL in Tris-buffered saline containing 1.0 mM Ca^++, Mg^++, and Mn^++, pH 7.4 (TBS^+++). The diluted receptor was immediately transferred to Linbro microtiter plates at 100 μL/well (100 ng receptor/well). The plates were sealed and incubated overnight at 4° C. to allow the receptor to bind to the wells. All remaining steps were at room temperature. The assay plates were emptied and 200 μL of 1% RIA grade BSA in TBS^+++ (TBS^+++/BSA) were added to block exposed plastic surfaces. Following a 2 hour incubation, the assay plates were washed with TBS^+++ using a 96 well plate washer. Logarithmic serial dilution of the test compound and controls were made starting at a stock concentration of 2 mM and using 2 nM biotinylated vitronectin in TBS^+++/BSA as the diluent. This premixing of labeled ligand with test (or control) ligand, and subsequent transfer of 50 μL aliquots to the assay plate was carried out with a CETUS Propette robot; the final concentration of the labeled ligand was 1 nM and the highest concentration of test compound was 1.0×10^−4 M. The competition occurred for two hours after which all wells were washed with a plate washer as before. Affinity purified horseradish peroxidase labeled goat anti-biotin antibody was diluted 1:3000 in TBS^+++/BSA and 125 μL were added to each well. After 30 minutes, the plates were washed and incubated with OPD/H2O2 substrate in 100 mM/L Citrate buffer, pH 5.0. The plate was read with a microtiter plate reader at a wavelength of 450 nm and when the maximum-binding control wells reached an absorbance of about 1.0, the final A450 were recorded for analysis. The data were analyzed using a macro written for use with the EXCELJ spreadsheet program. The mean, standard deviation, and % CV were determined for duplicate concentrations. The mean A450 values were normalized to the mean of four maximum-binding controls (no competitor added)(B-MAX). The normalized values were subjected to a four parameter curve fit algorithm [Rodbard et al., Int.

[2] = molecular target: T2, Human fibrinogen receptor IIb/IIIa (Homo sapiens, UniProt P05106+P08514); assay: Purified IIb/IIIa receptor assay: solid phase receptor assay, competition with biotinylated vitronectin; type: binding; settings: 1 nM biotinylated vitronectin
T2 construct: Human fibrinogen receptor ([…]) was purified from outdated platelets; from tissue; host or cells: outdated human platelets
From the text: Purified IIb/IIIa Receptor Assay
Human fibrinogen receptor ([…]) was purified from outdated platelets. (Pytela, R., Pierschbacher, M. D., Argraves, S., Suzuki, S., and Rouslahti, E. “Arginine-Glycine-Aspartic acid adhesion receptors”, Methods in Enzymology 144(1987):475-489.) Human vitronectin was purified from fresh frozen plasma as described in Yatohgo, T., Izumi, M., Kashiwagi, H., and Hayashi, M., “Novel purification of vitronectin from human plasma by heparin affinity chromatography,” Cell Structure and Function 13(1988):281-292. Biotinylated human vitronectin was prepared by coupling NHS-biotin from Pierce Chemical Company (Rockford, Ill.) to purified vitronectin as previously described. (Charo, I. F., Nannizzi, L., Phillips, D. R., Hsu, M. A., Scarborough, R. M., “Inhibition of fibrinogen binding to GP IIb/IIIa by a GP IIIa peptide”, J. Biol. Chem. 266(3)(1991): 1415-1421.) Assay buffer, OPD substrate tablets, and RIA grade BSA were obtained from Sigma (St. Louis, Mo.). Anti-biotin antibody was obtained from Calbiochem (La Jolla, Calif.). Linbro microtiter plates were obtained from Flow Labs (McLean, Vs.). ADP reagent was obtained from Sigma (St. Louis, Mo.).
This assay is essentially the same reported in Niiya, K., Hodson, E., Bader, R., Byers-Ward, V. Koziol, J. A., Plow, E. F. and Ruggeri, Z. M., “Increased surface expression of the membrane glycoprotein IIb/IIIa complex induced by platelet activation: Relationships to the binding of fibrinogen and platelet aggregation”, Blood 70(1987):475-483. The purified human fibrinogen receptor ([…]) was diluted from stock solutions to 1.0 μg/mL in Tris-buffered saline containing 1.0 mM Ca^++, Mg^++, and Mn^++, pH 7.4 (TBS^+++). The diluted receptor was immediately transferred to Linbro microtiter plates at 100 μL/well (100 ng receptor/well). The plates were sealed and incubated overnight at 4° C. to allow the receptor to bind to the wells. All remaining Steps were at room temperature. The assay plates were emptied and 200 μL of 1% RIA grade BSA in TBS^+++ (TBS^+++/BSA) were added to block exposed plastic surfaces. Following a 2 hour incubation, the assay plates were washed with TBS^+++ using a 96 well plate washer. Logarithmic serial dilution of the test compound and controls were made starting at a stock concentration of 2 mM and using 2 nM biotinylated vitronectin in TBS^+++/BSA as the diluent. This premixing of labeled ligand with test (or control) ligand, and subsequent transfer of 50 μL aliquots to the assay plate was carried out with a CETUS Propette robot; the final concentration of the labeled ligand was 1 nM and the highest concentration of test compound was 1.0×10^−4 M. The competition occurred for two hours after which all wells were washed with a plate washer as before. Affinity purified horseradish peroxidase labeled goat anti-biotin antibody was diluted 1:3000 in TBS^+++/BSA and 125 μL were added to each well. After 30 minutes, the plates were washed and incubated with […] substrate in 100 mM/L citrate buffer, pH 5.0. The plate was read with a microtiter plate reader at a wavelength of 450 nm and when the maximum-binding control wells reached an absorbance of about 1.0, the final A450 were recorded for analysis. The data were analyzed using a macro written for use with the EXCELJ spreadsheet program. The mean, standard deviation, and % CV were determined for duplicate concentrations. The mean A450 values were normalized to the mean of four maximum-binding controls (no competitor added)(B-MAX). The normalized values were subjected to a four parameter curve fit algorithm, [Robard et al., Int. Atomic Energy Agency.

IC50 [1]: 6.96 nM
IC50 [2]: 1710 nM
Compound: COc1ncc(N=C2NCCN2)cc1C(=O)NCC(=O)NC(CC(=O)O)c1cc(Cl)cc(Cl)c1O (stereo not drawn) [Example 22, N-[[(4,5,-dihydro-1H-imidazol-2-yl)amino]-2-methoxy-3-pyridinyl]carbonyl]glycyl-3-(3,5-dichloro-2-hydroxyphenyl)-β-alanine, (trifluoroacetate) salt]
